Measured values reported in patent publication US20180353501A1 (Arvinas, Inc., priority 2017, published 2018).

Key:
[1] = target: T1, VHL (GST-VBC) (Homo sapiens, UniProt P40337); test: SPR binary affinity, PROTAC on immobilized GST-VBC; type: binding
T1 construct: made in house; host or cells: E. coli BL21(DE3)
Protocol: FIGS. 16A, 16B, and 16C. SPR curves assessing binary and ternary interactions. […] (C) SPR kinetic evaluation of p38δ:compound 46:VHL and p38δ:compound 50:VHL ternary complex interactions. Equimolar p38δ:PROTAC mixtures were injected onto immobilized GST-VBC and allowed to dissociate overtime. […] See Table 12 for a summary of the binary and ternary affinity and kinetic measurements.
Next, with the same setup, equimolar p38δ:PROTAC dilutions were successively injected onto immobilized VHL for 60 seconds, prior to monitoring complex dissociation for the remaining 300 seconds. […]
For the expression of GST-tagged VHL:Elongin B:Elongin C (herein referred to as GST-VHL), wild-type human VHL, Elongin B, and Elongin C were co-expressed in E. coli. […] Eluted protein was assessed for identity and purity via coomassie staining of sample run on an SDS-PAGE gel and pure elutions were pooled, concentrated, and diluted in ion-exchange buffer A (30 mM Tris pH 8.0, 5% glycerol, 1 mM DTT) until the salt concentration was 50 mM, before loading onto a Mono Q 5/50 GL column (GE Life Sciences). […] Fractions were then assessed for purity via coomassie, pooled, concentrated, and run on a Superdex-200 column (GE Life Sciences) using size-exclusion buffer (30 mM Tris pH 8.0, 100 mM NaCl, 10% glycerol, 1 mM DTT). […]

[2] = target: T2, p38α (Homo sapiens, UniProt Q16539); test: Cellular assay of target protein degradation (MDA-MB-231 cells, ELISA); type: cell-based
T2 construct: selectively degrades p38α, whereas exemplary PROTAC 46 (10-atom linker, phenyl attachment) selectively degrades p38δ in MDA-MB-231 cells; endogenous in cells; host or cells: MDA-MB-231
Protocol: Protocol of the cellular assay of target protein degradation (MDA-MB-231 cells, ELISA).
For detection Cell Signaling PathScan Sandwich ELISA Catalog#12850 was used. MDA-MB-231 cells and […] were cultured in ATCC DMEM+ATCC FBS and plated 40,000/well 100 μl/well in RPMI P/S with 5% CSS Omega (bovine) serum into a 96 well plate. The cells were grown for a minimum of 3 days, dosed with compounds in 0.1% DMSO (diluted with 5% CSS) and incubated with aspiration for 4 hours. 100 μl of 1× Cell Signaling lysis buffer #9803 (36 mL dH2O+4 mL Cell Signaling lysis buffer) was added. The incubation was placed on cold room shaker for 10 minutes at speed 8-9.5 μl to 100 μL of Diluent was transferred to ELISA plate (0.15 μg/mL-0.075 μg/mL) and stored at 4° C. overnight on cold room shaker speed 5 (gentle swirl) and then shaken next morning at 37° C. for 30 minutes. The preparation was washed 4×200 μl with ELISA wash buffer and aspirated with eight-channel aspirator. 100 μl/well of target protein detection antibody was added after, which the preparation was covered and shaken at 37° C. for 1 hour. 100 μl TMB was added, and the mixture was shaken for 5 min while under observation. When TMB turned light blue, 100 μl of Stop solution was added, and the mixture was shaken and read at 450 nm. Also read at 562 nm for background subtraction.

T2 sequence (Q16539 whole entry): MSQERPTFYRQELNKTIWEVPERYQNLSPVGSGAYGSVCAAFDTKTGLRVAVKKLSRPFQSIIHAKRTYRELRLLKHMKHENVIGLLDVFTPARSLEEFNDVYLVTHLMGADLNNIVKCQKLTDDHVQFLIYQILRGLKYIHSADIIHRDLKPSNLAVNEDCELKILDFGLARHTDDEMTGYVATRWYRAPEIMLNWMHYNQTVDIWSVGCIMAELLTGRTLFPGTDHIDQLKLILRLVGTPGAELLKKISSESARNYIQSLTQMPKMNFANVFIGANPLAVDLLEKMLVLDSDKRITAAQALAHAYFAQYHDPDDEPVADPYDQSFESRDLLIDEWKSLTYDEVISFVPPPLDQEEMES
T1 sequence (P40337 whole entry): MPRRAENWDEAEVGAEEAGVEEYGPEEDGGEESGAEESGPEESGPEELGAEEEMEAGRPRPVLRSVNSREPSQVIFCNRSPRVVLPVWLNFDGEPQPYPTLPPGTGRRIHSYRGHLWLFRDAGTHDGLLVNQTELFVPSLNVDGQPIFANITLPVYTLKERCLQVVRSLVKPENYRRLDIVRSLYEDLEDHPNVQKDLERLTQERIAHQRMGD
T1 sequence (Q15370 whole entry partner): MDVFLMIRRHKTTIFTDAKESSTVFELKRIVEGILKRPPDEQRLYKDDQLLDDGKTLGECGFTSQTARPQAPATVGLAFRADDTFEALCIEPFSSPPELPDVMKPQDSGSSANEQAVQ
T1 sequence (Q15369 whole entry partner): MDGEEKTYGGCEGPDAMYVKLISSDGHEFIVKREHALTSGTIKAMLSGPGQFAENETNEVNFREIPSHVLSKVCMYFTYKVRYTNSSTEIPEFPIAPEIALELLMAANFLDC

Structure (SMILES) | Kd [1] [µM] | DC50 [2] [nM] | Dmax [2] [%]
COc1cc2c(Oc3ccc(NC(=O)C4(C(=O)Nc5ccc(F)cc5)CC4)cc3F)ccnc2cc1OCCOCCOCCOc1cc(-c2scnc2C)ccc1CNC(=O)[C@@H]1C[C@@H](O)CN1C(=O)[C@H](C(C)C)N1Cc2ccccc2C1=O [compound 46] | 3.5 | > 5000 | 33
COc1cc2c(Oc3ccc(NC(=O)C4(C(=O)Nc5ccc(F)cc5)CC4)cc3F)ccnc2cc1OCCCCOCCCCOCC(=O)N[C@H](C(=O)N1C[C@H](O)C[C@H]1C(=O)NCc1ccc(-c2scnc2C)cc1)C(C)(C)C [compound 50, N-(3-fluoro-4-((7-(4-(4-(2-(((S)-1-((2S,4R)-4-hydroxy-2-((4-(4-methylthiazol-5-yl)benzyl)carbamoyl)pyrrolidin-1-yl)-3,3-dimethyl-1-oxobutan-2-yl)amino)-2-oxoethoxy)butoxy)buto-xy)-6-methoxyquinolin-4-yl)oxy)phenyl)-N-(4-fluorophenyl)cyclopropane-1,1-dicarboxa-mide] | 5 | 9.5 | 99
